The values below come from patent US20250361235A1, “PIPERIDINYL-METHYLPURINE BENZENES AND RELATED COMPOUNDS AND THEIR USE IN TREATING DISEASES AND CONDITIONS” (K36 Therapeutics, Inc., priority 2022, published 2025).

Structures are written as SMILES.

The IC50 is the concentration at which inhibition is half-maximal.

recombinant human NSD2, sequence (O96028 2-1365 limits assumed): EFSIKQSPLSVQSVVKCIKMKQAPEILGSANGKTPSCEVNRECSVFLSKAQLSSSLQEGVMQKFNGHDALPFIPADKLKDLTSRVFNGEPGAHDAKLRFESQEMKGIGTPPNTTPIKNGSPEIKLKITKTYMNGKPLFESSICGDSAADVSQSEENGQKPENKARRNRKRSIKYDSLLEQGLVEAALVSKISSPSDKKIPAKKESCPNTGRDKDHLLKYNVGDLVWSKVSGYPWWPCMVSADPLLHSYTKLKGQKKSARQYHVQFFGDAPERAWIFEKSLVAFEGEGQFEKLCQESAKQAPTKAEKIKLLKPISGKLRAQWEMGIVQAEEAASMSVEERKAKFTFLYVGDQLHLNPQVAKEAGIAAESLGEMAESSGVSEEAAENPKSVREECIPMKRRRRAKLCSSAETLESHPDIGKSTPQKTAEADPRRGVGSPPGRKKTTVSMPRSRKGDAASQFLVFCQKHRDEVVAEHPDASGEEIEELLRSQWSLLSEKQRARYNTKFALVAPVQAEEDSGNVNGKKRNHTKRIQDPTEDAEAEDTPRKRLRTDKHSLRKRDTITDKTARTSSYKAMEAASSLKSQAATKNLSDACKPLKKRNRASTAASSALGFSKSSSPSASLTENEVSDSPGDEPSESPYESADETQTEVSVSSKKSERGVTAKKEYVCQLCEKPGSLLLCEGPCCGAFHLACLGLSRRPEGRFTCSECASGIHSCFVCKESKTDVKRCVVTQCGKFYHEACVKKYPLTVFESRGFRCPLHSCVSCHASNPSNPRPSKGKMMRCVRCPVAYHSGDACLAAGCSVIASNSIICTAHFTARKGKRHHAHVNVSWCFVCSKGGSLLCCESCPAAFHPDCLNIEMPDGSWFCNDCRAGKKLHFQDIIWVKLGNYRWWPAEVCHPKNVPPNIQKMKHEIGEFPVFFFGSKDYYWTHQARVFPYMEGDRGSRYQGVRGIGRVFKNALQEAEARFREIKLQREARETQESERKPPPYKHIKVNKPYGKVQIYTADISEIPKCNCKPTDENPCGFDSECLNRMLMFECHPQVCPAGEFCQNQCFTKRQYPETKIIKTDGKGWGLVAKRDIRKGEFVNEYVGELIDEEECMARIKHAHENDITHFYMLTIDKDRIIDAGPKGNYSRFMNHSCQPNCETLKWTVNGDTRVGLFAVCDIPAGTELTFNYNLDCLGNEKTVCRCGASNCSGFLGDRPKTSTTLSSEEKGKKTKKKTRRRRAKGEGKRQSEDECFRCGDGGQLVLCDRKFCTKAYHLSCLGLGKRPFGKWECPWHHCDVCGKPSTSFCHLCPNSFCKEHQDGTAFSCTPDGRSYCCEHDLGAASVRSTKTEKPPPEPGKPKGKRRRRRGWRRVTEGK

This assay concerns the target recombinant human NSD2 (Homo sapiens (Human), UniProt O96028). Put plainly: NSD2 inhibitory activity, modified RBC HotSpot HMT Assay (3H-SAM, oligonucleosome substrate). Type of assay: biochemical. To be noted: recombinant human NSD2 (2 nM), chicken oligonucleosomes 0.05 mg/ml, 3H-SAM 1 μM, 1 hour at 30° C. On the procedure:
Exemplary compounds were tested for NSD2 inhibitory activity using a modified RBC HotSpot HMT Assay.
A reaction mixture was prepared by adding oligonucleosomes from Chicken (0.05 mg/ml) to freshly prepared reaction buffer containing 50 mM Tris-HCl (pH 8.5), 50 mM NaCl, 5 mM MgCl2, 0.01% Brij35, 1 mM DTT, and 1% DMSO followed by the addition of recombinant human NSD2, (amino acids 2-end) with N-terminal His tag (2 nM; GenBank Accession No. NM_001042424; MW=155.5 kDa; expressed in Sf9 insect cells) and gentle mixing. The test compounds were diluted in DMSO, added to the reaction mixture in nanoliter amounts by using Acoustic Technology (Echo 550, LabCyte Inc. Sunnyvale, CA) and incubated for 20 minutes at room temperature. The reaction was initiated by the addition of S-Adenosyl-L-[methyl-^3H] methionine (3H-SAM; 1 μM), and the mixture was incubated for 1 hour at 30° C. The reaction mixture was delivered to filter paper and the methylated substrate was quantified by scintillation counting. Data analysis was performed using Excel and GraphPad Prism software for IC50 curve fits. For additional information on the histone methyltransferase assay, see, for example, Horiuchi K Y, et al., “Assay Development for Histone Methyltransferases,” Assay Drug Dev Technol. 2013 May; 11 (4): 227-36.
As for `COc1cc(F)c(-c2ccc(N3CCC[C@](N)([C@H](O)C(F)F)C3)c(Cn3cnc4c(N)ncnc43)c2)cc1F` [Compound I-1, (S)-1-((R)-3-amino-1-(3-((6-amino-9H-purin-9-yl)methyl)-2′,5′-difluoro-4′-methoxy-[1,1′-biphenyl]-4-yl)piperidin-3-yl)-2,2-difluoroethan-1-ol], the IC50 was 1 to 10 nM.
On to `COc1cc(F)c(-c2cnc(N3CCC[C@](N)([C@H](O)C(F)F)C3)c(Cn3cnc4c(N)ncnc43)c2)cc1F` [II-1, (S)-1-((R)-3-amino-1-(3-((6-amino-9H-purin-9-yl)methyl)-5-(2,5-difluoro-4-methoxyphenyl)pyridin-2-yl)piperidin-3-yl)-2,2-difluoroethan-1-ol], for which the IC50 lay within 10 to 1000 nM.
For `COc1cc(F)c(-c2ccc(N3CCC[C@](N)([C@H](O)C(F)F)C3)c(Cn3cnc4c(N)ncnc43)n2)cc1F` [III-1, (S)-1-((R)-3-amino-1-(2-((6-amino-9H-purin-9-yl)methyl)-6-(2,5-difluoro-4-methoxyphenyl)pyridin-3-yl)piperidin-3-yl)-2,2-difluoroethan-1-ol] the value was greater than 1000 nM.
